Measurements: patent publication US4835287A, “Antibiotic substance” (SS Pharmaceutical Co., Ltd., priority 1987, dated 1989)
Converted amounts (≈) assume the structure as drawn.

Key:
Escherichia coli 0-1 = assay: Antimicrobial activity (MIC); format: cell-based; conditions: 01, read-out: Minimal Inhibitory Concentrations (MICs)
Shigella flexneri 2b = assay: Antimicrobial activity (MIC); format: cell-based; conditions: read-out: Minimal Inhibitory Concentrations (MICs)
[1] = system: Aspergillus niger ATCC 9642; assay: Antimicrobial activity (MIC); format: cell-based; conditions: ATCC9642, read-out: Minimal Inhibitory Concentrations (MICs)
Proteus rettgeri = assay: Antimicrobial activity (MIC); format: cell-based; conditions: Providencia rettgeri, read-out: Minimal Inhibitory Concentrations (MICs)
[2] = system: Micrococcus lysodeikticus IFO 3333; assay: Antimicrobial activity (MIC); format: cell-based; conditions: Micrococcus luteus, IFO3333, read-out: Minimal Inhibitory Concentrations (MICs)
Solubility to solvents = format: physicochemical
[3] = system: Trichophyton tonsurans IFO 5928; assay: Antimicrobial activity (MIC); format: cell-based; conditions: IFO5928, read-out: Minimal Inhibitory Concentrations (MICs)
[4] = system: Staphylococcus epidermidis ATCC 12228; assay: Antimicrobial activity (MIC); format: cell-based; conditions: ATCC12228, read-out: Minimal Inhibitory Concentrations (MICs)
[5] = system: Staphylococcus aureus Smith; assay: Antimicrobial activity (MIC); format: cell-based; conditions: read-out: Minimal Inhibitory Concentrations (MICs)
[6] = system: Streptococcus faecalis IFO 12964; assay: Antimicrobial activity (MIC); format: cell-based; conditions: Enterococcus faecalis, IFO12964, read-out: Minimal Inhibitory Concentrations (MICs)
[7] = system: Staphylococcus aureus Terajima; assay: Antimicrobial activity (MIC); format: cell-based; conditions: read-out: Minimal Inhibitory Concentrations (MICs)
[8] = system: Pseudomonas aeruqinosa IFO 13736; assay: Antimicrobial activity (MIC); format: cell-based; conditions: IFO13736, read-out: Minimal Inhibitory Concentrations (MICs)
Sarcina lutea ATCC 9341 = assay: Antimicrobial activity (MIC); format: cell-based; conditions: Micrococcus luteus, ATCC9341, read-out: Minimal Inhibitory Concentrations (MICs)
[9] = system: Staphylococcus aureus 209P; assay: Antimicrobial activity (MIC); format: cell-based; conditions: read-out: Minimal Inhibitory Concentrations (MICs)
[10] = system: Bacillus subtilis ATCC 6633; assay: Antimicrobial activity (MIC); format: cell-based; conditions: ATCC6633, read-out: Minimal Inhibitory Concentrations (MICs)
[11] = system: Candida albicans NHL 4019; assay: Antimicrobial activity (MIC); format: cell-based; conditions: NHL4019, read-out: Minimal Inhibitory Concentrations (MICs)
[12] = system: Pyricularia oryzae IAM 5016; assay: microbe, parasite or virus in culture; format: cell-based; conditions: IAM5016, read-out: Minimal Inhibitory Concentrations (MICs)
Serratia marcescens NHL = assay: Antimicrobial activity (MIC); format: cell-based; conditions: read-out: Minimal Inhibitory Concentrations (MICs)
[13] = Property as to basic, acid or neutral; format: physicochemical
[14] = system: Klebsiella pneumoniae ATCC 10031; assay: Antimicrobial activity (MIC); format: cell-based; conditions: ATCC10031, read-out: Minimal Inhibitory Concentrations (MICs)
mouse leukemia P-388 = assay: Antitumor activity (life prolongation) on mouse leukemia P-388; format: in vivo; conditions: i.p. once a day ten times, CDF1 male mice, P-388 i.p.
Method: Curing effects of substances SS42227A and B on mouse leukemia P-388 were examined according to the following method. In the Table, the antitumor activities, or the effect of life prolongation, are expressed as the percentage of the survival time (days) of treated groups (T) per the survival time (days) for the untreated or control group (C).
CDF1 (male: supplied by Charles River Japan Inc.) were inoculated intraperitoneally with 1×10^6 P-388 cells. Then, commencing at 24 hours thereafter, substance SS42227A was intraperitoneally injected into the mice once a day and ten times in total.

SMILES	MIC (Escherichia coli 0-1) [µg/mL]	MIC (Shigella flexneri 2b) [µg/mL]	MIC [1] [µg/mL]	MIC (Proteus rettgeri) [µg/mL]	MIC [2] [µg/mL]	Solubility to solvents (Solubility to solvents; acetone)	Solubility to solvents (Solubility to solvents; chloroform)	Solubility to solvents (Solubility to solvents; diethyl ether)	Solubility to solvents (Solubility to solvents; ethyl acetate)	Solubility to solvents (Solubility to solvents; methanol)	Solubility to solvents (Solubility to solvents; n-hexane)	Solubility to solvents (Solubility to solvents; water)	MIC [3] [µg/mL]	MIC [4] [µg/mL]	MIC [5] [µg/mL]	MIC [6] [µg/mL]	MIC [7] [µg/mL]	MIC [8] [µg/mL]	MIC (Sarcina lutea ATCC 9341) [µg/mL]	MIC [9] [µg/mL]	other results
COc1cc(C(=O)OC(C(=O)NC(C(=O)NCC(C)=O)=C2C(OC(C)=O)C(O)C3CN23)C2(C)CO2)c2cccc(C)c2c1 (stereo not shown) [SS42227A]	> 100	< 0.2	> 100	100 (≈ 168 µM)	< 0.2	Soluble	Soluble	Soluble	Soluble	Soluble	Sparingly soluble	Sparingly soluble	> 100	6.25 (≈ 10.5 µM)	1.56 (≈ 2.62 µM)	0.78 (≈ 1.31 µM)	6.25 (≈ 10.5 µM)	> 100	< 0.2	6.25 (≈ 10.5 µM)	MIC [10]: 0.78 µg/mL (≈ 1.31 µM); MIC [11]: > 100 µg/mL; MIC [12]: 100 µg/mL (≈ 168 µM); MIC (Serratia marcescens NHL): 100 µg/mL (≈ 168 µM); Property as to basic, acid or neutral [13]: Neutral; MIC [14]: 3.12 µg/mL (≈ 5.24 µM); Antitumor Activity T/C (survival time treated/control) (mouse leukemia P-388; 2 μg/kg/day): 163%; Antitumor Activity T/C (survival time treated/control) (mouse leukemia P-388; 4 μg/kg/day): 144%; Antitumor Activity T/C (survival time treated/control) (mouse leukemia P-388; 8 μg/kg/day): 154%; Antitumor Activity T/C (survival time treated/control) (mouse leukemia P-388; 15 μg/kg/day): 192%; Antitumor Activity T/C (survival time treated/control) (mouse leukemia P-388; 15.1 μg/kg/day): 170%; Antitumor Activity T/C (survival time treated/control) (mouse leukemia P-388; 30 μg/kg/day): 211%; Antitumor Activity T/C (survival time treated/control) (mouse leukemia P-388; 31.2 μg/kg/day): 195%; Antitumor Activity T/C (survival time treated/control) (mouse leukemia P-388; 60 μg/kg/day): 77%; Antitumor Activity T/C (survival time treated/control) (mouse leukemia P-388; 62.5 μg/kg/day): 152%
COc1cc(C(=O)OC(C(=O)NC(C(=O)NC(=CO)C(C)=O)=C2C(OC(C)=O)C(O)C3CN23)C2(C)CO2)c2cccc(C)c2c1 (stereo not shown) [SS42227B]	> 100	0.78 (≈ 1.25 µM)	> 100	> 100	< 0.2	Soluble	Soluble	Sparingly soluble	Soluble	Soluble	Sparingly soluble	Sparingly soluble	> 100	100 (≈ 160 µM)	1.56 (≈ 2.5 µM)	0.78 (≈ 1.25 µM)	50 (≈ 80.2 µM)	> 100	< 0.2	50 (≈ 80.2 µM)	MIC [10]: 50 µg/mL (≈ 80.2 µM); MIC [11]: > 100 µg/mL; MIC [12]: > 100 µg/mL; MIC (Serratia marcescens NHL): > 100 µg/mL; Property as to basic, acid or neutral [13]: Acid; MIC [14]: 50 µg/mL (≈ 80.2 µM)
